Results taken from patent publication US10736316B2, “Silica particles functionalized and loaded with fungicidal agents, their manufacture and their use as systems of targeted and controlled release of fungicides” (priority 2015, dated 2020).

What was measured:
[1] = Analysis of free pyrimethanil in treatment water by HPLC; assay type: physicochemical; conditions: example 17
Method: (§1) The reduction of free fungicide in water is calculated as: 100×(concentration of free fungicide in reference treatment water−concentration of free fungicide in LD treatment water)/concentration of free fungicide in reference treatment water. Likewise, the reduction of fungicide residues in fruits is calculated as: 100×(fungicide residues in fruit in reference treatment−fungicide residues in fruit in LD treatment)/fungicide residues in fruit in reference treatment.
This experiment was carried out following the same procedure as for examples 9-14. The free pyrimethanil residues in water and virtual were analyzed according to examples 18 and 19. For the reference conventional treatment (PIRREF) a solution of pyrimethanil at 525 mg/l in tap water was prepared from a commercial solution at 40% (PENBOTEC). For the LD treatment (PIR LD C18) a suspension of (PIR)SG-C18-OH of 14 g/l in tap water buffered with sodium etidronate 10 mM at pH=7.5 was prepared from the concentrated suspension described in example 16. A 14 g/l suspension correspond to a virtual pyrimethanil concentration contained within the microparticles of 525 mg/l. As a control, a treatment of bathing in tap water was carried out (CONTROL).
(§2) 1 ml of test solution of loaded microparticles was filtered through a nylon 0.45 micron syringe filter and later analyzed by HPLC (Agilent 1100 Series).
(§3) Chromatographic Conditions: […]

Penicillium digitatum = experiment: Rotting control (RRI) in oranges of Valencia variety inoculated with P. digitatum; assay type: in vivo; conditions: 7 days at 22° C. and 85% RH
Method: Without previous washing or treatment, fruits from the same batch, receive from field, were randomized in groups of 25. Each treatment was performed with 4 replicates of 25 fruits, which were artificially inoculated on one side by pricking with a punch (2 mm length, 1 mm diameter) previously impregnated in a solution of Penicillium digitatum or Penicillium italicum spores of 5*10^5 cfu/ml and allowed to stand for 17 hours before treatment.
(§4) For the LD treatments, IMZ LD C18 and IMZ LD C12, suspensions of (IMZ)SG-C18-OH and (IMZ)SG-C12-OH at 6 g/l in tap water buffered with 10 mM of sodium etidronate at pH=7.5 was prepared from the concentrated suspensions described in examples 7 and 8. […] As a control, a treatment of bathing in tap water was carried out (CONTROL).
The 25 fruits of each replicate were bathed using a mesh by immersion for 30 seconds in 10 l of treatment. […] After this time, the number of rotten fruits were counted for each replicate. The effectiveness of the treatments is expressed as % rotting and also as rotting reduction index (RRI, %), which is calculated as: 100×(No. of rotten control fruits−No. of rotten products in the treatment)/No. of rotten fruits in the control.
This experiment was carried out following the same procedure as for examples 9-14. The free pyrimethanil residues in water and virtual were analyzed according to examples 18 and 19. […]

[2] = Analysis of free thiabenzadol in treatment water by HPLC; assay type: physicochemical; conditions: example 22
Method: as §1
This experiment was carried out following the same procedure as for examples 9-14. The free thiabenzadol residues in water and virtual were analyzed according to examples 23 and 24. For the reference conventional treatment (TBZ REF) a solution of thiabenzadol at 1200 mg/l in tap water was prepared from a commercial solution at 40% (TEXTAR). For the LD treatment (TBZ LD C18) a suspension of (TBZ)SG-C18-OH of 16 g/l in tap water buffered with sodium etidronate 10 mM at pH=7.5 was prepared from the concentrated suspension described in example 21. A 16 g/l suspension correspond to a virtual thiabenzadol concentration contained within the microparticles of 1200 mg/l. As a control, a treatment of bathing in tap water was carried out (CONTROL).
as §2, §3

[3] = Analysis of free imazalil in treatment water by HPLC; assay type: physicochemical; conditions: for [IMZ] free in water: treatment water at the moment of treatment; for Reduction of [IMZ] in water: versus reference treatment water
Method: as §2
Chromatographic Conditions:
60% Phosphate buffer pH=2.5, 2 mM
as §4, §1

[4] = treatment water at the moment of treatment
[5] = versus reference treatment water

## Cc1cc(C)nc(Nc2ccccc2)n1 [PIR REF, pyrimethanil]
[1]; [4]
  [PIR] free in water: 525 mg/L
[1]; [5]
  Reduction of [PIR] in water: 0.0%
Penicillium digitatum; example 17, FIG. 16, 14 g/l (PIR)SG-C18-OH in etidronic buffer pH=7.5 or pyrimethanil 525 mg/l
  rotting reduction index (RRI): ~90%

## c1ccc2[nH]c(-c3cscn3)nc2c1 [TBZ REF, thiabenzadol]
[2]; [4]
  [TBZ] free in water: 1200 mg/L
[2]; [5]
  Reduction of [TBZ] in water: 0.0%
Penicillium digitatum; example 22, FIG. 18, 16 g/l (TBZ)SG-C18-OH in etidronic buffer pH=7.5 or thiabenzadol 1200 mg/l
  rotting reduction index (RRI): 100%

## imazalil sulfate [IMZ REF]
[3]; example 9
  [IMZ] free in water: 450 mg/L
  Reduction of [IMZ] in water: 0.0%
[3]; example 10
  [IMZ] free in water: 450 mg/L
  Reduction of [IMZ] in water: 0.0%
[3]; example 11
  [IMZ] free in water: 450 mg/L
  Reduction of [IMZ] in water: 0.0%
[3]; example 12
  [IMZ] free in water: 450 mg/L
  Reduction of [IMZ] in water: 0.0%
[3]; example 13
  [IMZ] free in water: 450 mg/L
  Reduction of [IMZ] in water: 0.0%
[3]; example 14
  [IMZ] free in water: 450 mg/L
  Reduction of [IMZ] in water: 0.0%
